Assay results as given in patent US7595320B2, “Hydrazinocarbonyl-thieno[2,3-C]pyrazoles, process for preparing them, compositions containing them and use thereof” (Aventis Pharma S.A., priority 2005, dated 2009).
pIC50: −log10 of the molar value. Where a name gives a salt, the structure may show the parent alone.

What was measured:
[1] = target: T1, CDK2/cycline E (Homo sapiens, UniProt P24941); experiment: CDK2/cyclineE Flashplate test in 96-well format; type: biochemical; settings: CDK2/cycline E complex, 1 μM ATP
T1 construct: made in house; host or cells: Sf21 insect cells (baculovirus coinfection)
In short: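 Recombinant human CDK2/cyclin E (His-tagged cyclin E, coexpressed in Sf21 cells), 20 nM, phosphorylates biotinylated pRb peptide (10 μM) with 1 μM ATP plus [γ-33P]ATP in HEPES pH 7.5, MgCl2, DTT at 30 °C. Inhibitors tested at 10 μM down to 0.014 μM; 33P incorporation read by scintillation on streptavidin plates.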

[2] = target: T2, Aurora2 (Homo sapiens, UniProt O14965); experiment: Aurora2 enzymatic test, NuMA phosphorylation with [33P]ATP, Flashplate; type: biochemical; settings: whole recombinant protein, 1 μM ATP
T2 construct: Aurora2: whole recombinant protein comprising an N-terminal histidine tail; His tag (N); made in house; host or cells: E. coli
T2 sequence (O14965 1-403): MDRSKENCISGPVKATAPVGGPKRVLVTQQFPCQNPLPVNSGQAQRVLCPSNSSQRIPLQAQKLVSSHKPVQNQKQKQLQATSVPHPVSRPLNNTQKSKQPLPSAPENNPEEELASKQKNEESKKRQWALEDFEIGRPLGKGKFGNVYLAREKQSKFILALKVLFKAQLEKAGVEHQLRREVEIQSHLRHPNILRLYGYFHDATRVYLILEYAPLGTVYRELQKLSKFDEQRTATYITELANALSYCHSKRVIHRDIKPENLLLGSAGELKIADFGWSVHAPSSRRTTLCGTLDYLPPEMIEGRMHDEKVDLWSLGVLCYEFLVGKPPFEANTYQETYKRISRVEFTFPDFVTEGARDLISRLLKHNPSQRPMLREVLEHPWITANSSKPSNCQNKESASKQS
In short: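 Full-length His-tagged Aurora2 (E. coli, >82% pure) at 10 nM phosphorylated 500 nM His-NuMA fragment on Ni-chelate Flashplates. Conditions were pH 7.5 Tris buffer with 10 mM MgCl2, 1 μM ATP plus [33P]ATP, 30 min at 37 °C.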

[3] = target: T3, Tie2 (Homo sapiens, UniProt Q02763); experiment: Tie2 kinase test, phosphorylation of PLC with GST-Tie2; type: biochemical; settings: GST-Tie2 intracellular domain 776-1124
T3 construct: amino acids of the intracellular domain 776-1124; made in house; host or cells: baculovirus expression (pFastBacGT vector)
T3 sequence (Q02763 776-1124): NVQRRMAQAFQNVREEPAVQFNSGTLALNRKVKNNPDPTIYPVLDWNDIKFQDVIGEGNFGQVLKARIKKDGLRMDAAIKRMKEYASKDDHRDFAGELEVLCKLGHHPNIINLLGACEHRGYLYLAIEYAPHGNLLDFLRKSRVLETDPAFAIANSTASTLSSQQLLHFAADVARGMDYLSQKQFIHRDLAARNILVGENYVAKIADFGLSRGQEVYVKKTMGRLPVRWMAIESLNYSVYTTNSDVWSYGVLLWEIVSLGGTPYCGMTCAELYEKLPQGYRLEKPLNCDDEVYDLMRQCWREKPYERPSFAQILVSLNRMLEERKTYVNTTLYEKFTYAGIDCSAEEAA

[4] = target: T4, Aurora1 (Homo sapiens, UniProt Q96GD4); experiment: Aurora1 enzymatic test, NuMA phosphorylation with [33P]ATP, Flashplate; type: biochemical; settings: Aurora-B/INCENP-C3 recombinant complex, 1 μM ATP
T4 construct: His tag (N); made in house
T4 sequence (Q96GD4 whole entry, species assumed): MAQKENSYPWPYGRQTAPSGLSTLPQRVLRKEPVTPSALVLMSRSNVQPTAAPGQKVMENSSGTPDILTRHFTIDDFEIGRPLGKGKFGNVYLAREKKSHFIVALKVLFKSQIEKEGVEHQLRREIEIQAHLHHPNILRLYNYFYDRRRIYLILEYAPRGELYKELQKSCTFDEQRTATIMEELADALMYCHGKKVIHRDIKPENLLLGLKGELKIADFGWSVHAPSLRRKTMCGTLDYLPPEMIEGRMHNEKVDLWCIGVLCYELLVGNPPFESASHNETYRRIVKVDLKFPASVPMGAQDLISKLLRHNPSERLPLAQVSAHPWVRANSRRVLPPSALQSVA
T4 sequence (Q9NQS7 835-903 partner limits assumed, species assumed): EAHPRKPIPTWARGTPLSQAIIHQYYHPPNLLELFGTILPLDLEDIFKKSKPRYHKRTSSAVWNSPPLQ
In short: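 Recombinant His-tagged Aurora-B/INCENP-C3 complex (10 nM) phosphorylates 500 nM His-NuMA fragment with 1 µM ATP plus [33P]ATP, 30 minutes at 37° C in Tris pH 7.5 with 5 mM MgCl2, on nickel-chelate Flashplates. Incorporated 33P counted; percent inhibition versus enzyme control after no-enzyme background subtraction.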

Row | SMILES | melting point [°C] | pIC50 [1] | pIC50 [2] | pIC50 [3] | pIC50 [4]
1 | CN(Cc1ccc(C(=O)Nc2n[nH]c3sc(C(=O)NN(C)c4ccccc4)cc23)cc1)c1ccccc1 [Example 24, 4-[(methylphenylamino)methyl]-N-[5-(N′-methyl-N′-phenylhydrazinocarbonyl)-1H-thieno[2,3-c]pyrazol-3-yl]benzamide] | 242 | 5.83 | 7.31 | 5.99 | 6.54
2 | CN(NC(=O)c1cc2c(NC(=O)c3ccc(CN4CCOCC4)cc3)n[nH]c2s1)c1ccccc1 [Example 8, N-[5-(N′-methyl-N′-phenylhydrazinocarbonyl)-1H-thieno[2,3-c]pyrazol-3-yl]-4-morpholin-4-ylmethylbenzamide] | 242 | 6.87 | 8.10 | 6.60 | 7.54
3 | CN1CCCN(Cc2ccc(C(=O)Nc3n[nH]c4sc(C(=O)NN(C)c5ccc(Cl)cc5)cc34)cc2)CC1 (as salt: salt) [Example 12b, 4-(4-methylperhydro-1,4-diazepin-1-ylmethyl)-N-[5-(N′-(4-chlorophenyl)-N′-methylhydrazinocarbonyl)-1H-thieno[2,3-c]pyrazol-3-yl]benzamide] | 162 |  |  |  | 

The remaining compounds from weak to strong by pIC50 [1], led by results:

Row | melting point [°C] | pIC50 [1] | pIC50 [2] | pIC50 [3] | pIC50 [4] | SMILES
4 |  | 7.02 | 7.30 | 6.41 | 6.54 | CN(NC(=O)c1cc2c(NC(=O)c3ccc(CN4CCCC4)cc3)n[nH]c2s1)c1ccc(Cl)cc1 [Example 18b, N-[5-(N′-(4-chlorophenyl)-N′-methylhydrazinocarbonyl)-1H-thieno[2,3-c]pyrazol-3-yl]-4-pyrrolidin-1-ylmethylbenzamide]
5 | 172 | 7.19 | 6.80 | 6.09 | 6.88 | CN(NC(=O)c1cc2c(NC(=O)c3ccc(Br)cc3)n[nH]c2s1)c1ccccc1 [Example 9, 4-bromo-N-[5-(N′-methyl-N′-phenylhydrazinocarbonyl)-1H-thieno[2,3-c]pyrazol-3-yl]benzamide]
